Laboratory results: patent publication US20130287721A1, “METHOD FOR COUNTERACTING AMMONIA MALODOR” (Firmenich SA, priority 2010, published 2013)

Tested on: ammonia lateralization threshold
Experiment: Panel evaluation of the lateralization threshold (LT) of ammonia alone and in combination with a PRM
Type: in vivo, panellists
Set-up: LT of ammonia Panellist 1 Cond II / LT of ammonia Panellist 2 Cond II / LT of ammonia Panellist 3 Cond II: unit not given here
Description: An ammonia stimulus test range was prepared. To ensure a stable level of ammonia in each stimulus, the ammonia headspace was stabilized by combining appropriate concentrations of NH4Cl, NaOH and H2O instead of simply adding ammonia directly to a solvent. Different concentrations of ammonia were used to create a stimulus test range by utilizing the appropriate amount of each compound (see Table 1).
A stimulus was also prepared for each PRM which was intended to be combined with ammonia stimuli. As the PRMs differed in their potency and to ensure that each PRM stimulus had approximately the same potency, an abbreviated dose response curve was constructed for each PRM by having four panellists evaluate the intensity of five concentration levels of the PRM dissolved in propylene glycol in duplicate. Assessments were made relative to the reference of 170 ppm allyl heptanoate in propylene glycol, which intensity was set to 0. Based upon the average scores, a rough intensity match was made for each PRM utilizing one of the following criteria. If one of the tested concentration levels averaged at or near zero, this concentration level was selected. If the rating created any sort of reasonable curve, the equation of the curve was determined and solved for 0 to arrive at the PRM assessment level. If multiple concentration levels were equally distant form the match level, then the standard deviation across individuals was considered, as were the individual responses. In general, the PRM level was selected to be on average close to 0 with low variability, with two panellists saying the level was a bit too high and the other two panellists saying the level was a bit too low. The PRMs for which a stimulus was prepared are listed in Table 2 below, together with the concentration of the PRM in the stimulus.
Volunteers were screened for their ability to lateralize ammonia stimuli. For the screening, the experimenter measured the participant's lateralization threshold for ammonia using a two-alternative forced choice modified staircase procedure employing a four-in, two-down, one-up rule with a five reversal criterion, as described below, On each trial volunteers were presented with a pair of glass bottles with clean, custom-made nose pieces. One bottle contained ammonia at a particular level selected from Table 1 and the other bottle contained water only. Each bottle was applied to one nostril using the nose piece. The volunteers were asked to identify which bottle in each pair contained ammonia.
If the ammonia stimulus was correctly identified in four consecutive trials, the concentration was decreased by one level of Table 1 on the next trial. If an incorrect answer was provided, the concentration was increased by one level of Table 1. Location (left or right nostril) of the stimulus was randomized over presentations. Testing continued until one of the following occurred: • 1) Five reversals (correct decision followed by an incorrect decision or vice versa) were achieved; • 2) The volunteer gave a correct response twice in a row at the lowest level of Table 1; or • 3) The volunteer gave an incorrect response at the highest level of Table 1.
In the first circumstance, threshold values were then calculated by averaging the last four reversals. In the second circumstance, the LT was the lowest level. In the third circumstance, the LT could not be calculated. Volunteers were considered qualified to participate in the panel evaluation if their LT could be calculated (Circumstance 1).
The LT of ammonia, both alone and in combination with diverse PRM, was determined. A repeated-measures design was used, such that the LT with and without the addition of a PRM were both measured at the same time in one person by utilizing interwoven stimuli presentations. The LT for each PRM was measured by two to three panellists, the third panellists being included if the results of the first to panellists disagreed. […]

[1] = Table 3, ammonia stimulus combined with PRM stimulus (concentration of Table 2 in propylene glycol)
[2] = Table 3, change of ammonia LT, Cond II (with PRM) vs Cond I (ammonia alone)
[3] = Table 4, ammonia stimulus combined with PRM stimulus
[4] = Table 4, change of ammonia LT, Cond II (with PRM) vs Cond I (ammonia alone)

Compound: CCCCCCOC(=O)c1ccccc1O [Hexyl salicylate]
- Ammonia LT Panellist 1 Cond II [1]: 7.3 ppm
- Ammonia LT Panellist 2 Cond II [1]: 188.3 ppm
- Ammonia LT Panellist 3 Cond II [1]: 7.3 ppm
- Ammonia LT Panellist 1 % Δ [2]: −68%
- Ammonia LT Panellist 2 % Δ [2]: 162%
- Ammonia LT Panellist 3 % Δ [2]: −62%

Compound: 3-Methyl-(4/5)-cyclopentadecenone [Muscenone ™]
- LT of ammonia Panellist 1 Cond II [3]: 11.1
- LT of ammonia Panellist 2 Cond II [3]: 11.1
- LT of ammonia Panellist 3 Cond II [3]: 11.1
- LT of ammonia Panellist 1 %Δ [4]: 454%
- LT of ammonia Panellist 2 %Δ [4]: 77%
- LT of ammonia Panellist 3 %Δ [4]: 214%
